From the NIST ThermoML archive (doi:10.1016/j.jct.2010.05.002)

Test: molar heat capacity at constant pressure
Details: 101.33 kPa, Crystal, Vacuum adiabatic calorimetry

CC(C)(C)c1ccc(-c2ccccc2)cc1 [4-(1,1-dimethylethyl)-1,1'-biphenyl]
Details	molar heat capacity at constant pressure [J/K/mol]
8.3 K	2.522
8.57 K	2.757
9.11 K	3.228
9.63 K	3.765
9.89 K	4.01
11.01 K	5.257
11.39 K	5.703
11.77 K	6.312
12.15 K	6.72
12.53 K	7.182
12.92 K	7.664
13.28 K	8.377
13.65 K	8.833
14.02 K	9.436
14.39 K	9.935
14.75 K	10.39
15.11 K	10.96
15.48 K	11.37
15.83 K	12.26
16.19 K	12.78
16.55 K	13.21
16.91 K	13.77
17.27 K	14.49
17.62 K	15.23
17.98 K	15.86
18.33 K	16.18
18.68 K	16.71
19.03 K	16.98
19.38 K	17.88
19.73 K	18.48
20.08 K	19.01
20.76 K	20.23
21.53 K	21.57
22.31 K	22.77
23.08 K	23.92
23.85 K	25.18
24.62 K	26.43
25.38 K	27.38
26.14 K	28.32
26.9 K	30.11
27.66 K	31.35
28.42 K	32.53
29.17 K	33.54
29.93 K	34.42
30.68 K	35.96
31.43 K	37.32
32.19 K	38.43
32.96 K	38.73
33.71 K	40.37
34.46 K	41.38
35.21 K	42.08
35.96 K	43.44
36.71 K	44.59
37.46 K	45.86
38.21 K	46.57
38.96 K	47.65
39.71 K	48.45
40.46 K	49.16
41.21 K	50.62
41.95 K	51.64
42.7 K	52.5
43.45 K	53.06
44.2 K	53.77
44.95 K	55.03
45.69 K	55.67
46.44 K	57.1
47.19 K	57.29
47.93 K	58.61
48.68 K	59.76
49.43 K	60.29
50.18 K	60.84
50.92 K	61.9
51.67 K	62.56
52.42 K	63.33
53.16 K	64.3
53.91 K	65.39
54.65 K	65.94
55.4 K	66.72
56.14 K	67.31
56.89 K	68.21
57.64 K	68.36
58.38 K	69.38
59.12 K	69.98
59.86 K	70.84
60.61 K	71.8
61.35 K	72.22
62.09 K	73.3
62.83 K	73.97
63.57 K	75.16
64.31 K	75.92
65.06 K	76.6
65.8 K	77.49
66.54 K	77.97
67.27 K	79.07
68.02 K	79.18
68.76 K	79.62
69.49 K	80.06
70.22 K	80.55
71.11 K	81.26
72.16 K	81.97
73.2 K	83.77
74.24 K	85.78
75.29 K	87.62
76.33 K	89.61
77.37 K	91.7
78.41 K	93.86
78.6 K	93.38
79.46 K	95.29
79.89 K	95.59
80.5 K	96.68
80.92 K	97.16
81.55 K	97.38
81.96 K	98.92
82.59 K	99.16
82.99 K	99.71
83.63 K	100.81
84.02 K	101.38
84.67 K	102.6
85.05 K	103.37
85.71 K	104.76
86.08 K	105.1
87.11 K	107.71
88.14 K	109.06
89.18 K	109.08
90.21 K	110.43
91.24 K	111.94
92.26 K	112.49
93.29 K	113.67
94.32 K	115.2
95.34 K	116.2
96.36 K	117.24
97.39 K	117.75
98.41 K	119.69
99.44 K	121.4
100.46 K	120.13
101.48 K	122.02
102.5 K	123.38
103.53 K	123.38
104.55 K	124.78
105.57 K	125.7
106.59 K	125.94
107.6 K	126.55
108.62 K	127.46
109.63 K	129.07
110.65 K	130.3
111.66 K	130.29
112.67 K	130.99
113.68 K	131.82
114.69 K	132.86
115.71 K	133.48
116.72 K	133.98
117.73 K	134.55
118.74 K	135.11
119.75 K	136.16
120.76 K	136.83
121.76 K	137.18
122.77 K	138
123.77 K	138.81
124.78 K	139.92
125.78 K	140.34
126.79 K	141.2
127.78 K	141.96
128.78 K	142.63
129.78 K	143.1
130.78 K	144.73
131.78 K	145.34
132.78 K	145.71
133.78 K	146.29
134.78 K	147.05
135.77 K	147.52
136.77 K	148.34
137.77 K	149.37
138.76 K	149.38
139.75 K	150.91
140.74 K	152.15
141.74 K	153
142.73 K	153.45
143.7 K	153.84
144.69 K	154.76
145.68 K	154.88
146.67 K	155.86
147.65 K	157.44
148.64 K	158.13
149.63 K	159.37
150.61 K	159.11
151.59 K	161.68
152.58 K	161.75
153.56 K	162.27
154.54 K	162.57
155.52 K	163.19
